# Measurements as given in patent publication US20120029190A1, “COMPOUNDS FOR TREATING DISORDERS MEDIATED BY METABOTROPIC GLUTAMATE RECEPTOR 5, AND METHODS OF USE THEREOF” (priority 2009, published 2012).
# Target: T1, human recombinant mGluR5 receptor (Homo sapiens, UniProt P41594)
# T1 construct: expressed in transfected cells; expression induced with doxycycline
# Assay: mGluR5 in vitro functional assay (aequorin cell line, inhibition of glutamate EC80 response)
# Type: cell-based
# Conditions: Table 1; aequorin cell line expressing human mGluR5, reference agonist glutamate at EC80; obtained in duplicate; read-out: IC50
# Procedure, shortened: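 Doxycycline-induced (600 ng/mL, 18 h) aequorin cells loaded with coelenterazine h ≥4 h at room temperature; compound preincubated 3 min before glutamate at EC80. Luminescence recorded, normalized to digitonin or 20 mM ATP wells; % inhibition of EC80 response fitted by sigmoidal nonlinear regression.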
# T1 sequence (P41594 21-1212): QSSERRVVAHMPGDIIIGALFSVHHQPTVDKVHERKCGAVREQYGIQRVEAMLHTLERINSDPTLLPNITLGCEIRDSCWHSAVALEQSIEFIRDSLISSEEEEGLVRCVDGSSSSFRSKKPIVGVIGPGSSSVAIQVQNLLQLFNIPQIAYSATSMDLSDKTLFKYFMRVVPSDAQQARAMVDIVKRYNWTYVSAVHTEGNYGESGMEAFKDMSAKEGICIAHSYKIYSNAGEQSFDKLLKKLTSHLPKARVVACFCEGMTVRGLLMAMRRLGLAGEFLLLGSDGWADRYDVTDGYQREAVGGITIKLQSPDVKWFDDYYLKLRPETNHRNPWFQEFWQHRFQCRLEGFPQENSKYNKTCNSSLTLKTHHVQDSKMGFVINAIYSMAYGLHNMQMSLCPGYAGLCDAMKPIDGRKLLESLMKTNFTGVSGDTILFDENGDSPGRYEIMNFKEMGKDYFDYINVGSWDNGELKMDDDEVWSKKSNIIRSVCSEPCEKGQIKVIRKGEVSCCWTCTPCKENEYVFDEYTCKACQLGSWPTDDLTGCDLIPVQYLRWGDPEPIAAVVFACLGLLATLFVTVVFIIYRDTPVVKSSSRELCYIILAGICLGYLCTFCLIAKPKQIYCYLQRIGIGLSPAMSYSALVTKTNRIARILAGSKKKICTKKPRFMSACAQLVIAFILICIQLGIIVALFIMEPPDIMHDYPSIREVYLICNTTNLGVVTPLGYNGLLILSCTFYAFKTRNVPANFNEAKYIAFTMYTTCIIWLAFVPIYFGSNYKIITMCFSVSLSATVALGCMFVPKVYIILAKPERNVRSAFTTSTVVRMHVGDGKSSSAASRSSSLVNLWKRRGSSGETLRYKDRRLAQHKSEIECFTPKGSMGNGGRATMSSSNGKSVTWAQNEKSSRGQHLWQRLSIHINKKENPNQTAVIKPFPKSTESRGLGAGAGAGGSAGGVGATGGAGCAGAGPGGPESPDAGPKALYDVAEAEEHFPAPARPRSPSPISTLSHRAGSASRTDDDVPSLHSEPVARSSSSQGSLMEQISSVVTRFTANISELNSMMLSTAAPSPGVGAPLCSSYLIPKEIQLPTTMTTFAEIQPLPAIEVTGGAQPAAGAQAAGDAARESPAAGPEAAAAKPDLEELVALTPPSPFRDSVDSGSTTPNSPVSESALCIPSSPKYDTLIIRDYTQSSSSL
row,Compound,IC50
1,"Clc1cccc(N2CCCc3oc(-c4ccccn4)nc3C2)c1 [Compound 102, 5-(3-Chlorophenyl)-2-(pyridin-2-yl)-5,6,7,8-tetrahydro-4H-oxazolo[4,5-c]azepine]",< 1000 nM
2,"COc1cccc(N2CCCc3oc(-c4ccccn4)nc3C2)n1 [Compound 103, 5-(6-Methoxypyridin-2-yl)-2-(pyridin-2-yl)-5,6,7,8-tetrahydro-4H-oxazolo[4,5-c]azepine]",< 1000 nM
3,"Fc1cncc(N2CCCc3oc(-c4ccccn4)nc3C2)c1 [Compound 104, 5-(5-Fluoropyridin-3-yl)-2-(pyridin-2-yl)-5,6,7,8-tetrahydro-4H-oxazolo[4,5-c]azepine]",< 1000 nM
4,"N#Cc1cc(F)cc(N2CCc3nc(-c4ccccn4)sc3C2)c1 [Compound 105, 3-Fluoro-5-(2-(pyridin-2-yl)-6,7-dihydro-thiazolo[5,4-c]pyridin-5(4H)-yl)benzonitrile]",< 10000 nM
5,"Clc1cccc(-c2cn3c(n2)CN(c2cccnc2)CC3)c1 [Compound 106, 2-(3-Chlorophenyl)-7-(pyridin-3-yl)-5,6,7,8-tetrahydroimidazo[1,2-a]pyrazine]",< 10000 nM
6,"Clc1cccc(-c2cn3c(n2)CN(c2ccccn2)CC3)c1 [Compound 107, 2-(3-Chlorophenyl)-7-(pyridin-2-yl)-5,6,7,8-tetrahydroimidazol[1,2-a]pyrazine]",< 10000 nM
7,"N#Cc1cccnc1N1CCn2cc(-c3cccc(Cl)c3)nc2C1 [Compound 108, 2-(2-(3-Chlorophenyl)-5,6-dihydroimidazo[1,2-a]pyrazin-7(8H)-yl)nicotinotrile]",< 10000 nM
8,"N#Cc1cc(F)cc(N2CCn3cc(-c4ccccn4)nc3C2)c1 [Compound 109, 3-Fluoro-5-(2(pyridin-2-yl)-5,6-dihydroimidazo-[1,2-a]pyrazin-7(8H)-yl)benzonitrile]",< 1000 nM
9,"N#Cc1cccc(N2CCn3cc(-c4ccccn4)nc3C2)c1 [Compound 110, 3-(2(Pyridin-2-yl)-5,6-dihydroimidazo[1,2-a]pyrazin-7(8H)-yl)benzonitrile]",< 1000 nM
10,"N#Cc1cc(F)cc(N2CCc3nc(-c4ccccn4)[nH]c3C2)c1 [Compound 111, 3-Fluoro-5-(2-(pyridin-2-yl)-6,7-dihydro-3H-imidazo[4,5-c]pyridin-5(4H)-yl)benzonitrile]",> 10000 nM
11,"N#Cc1cc(F)cc(N2CCn3nc(-c4ccccn4)nc3C2)c1 [Compound 112, 3-Fluoro-5-(2-(pyridin-2-yl)-5,6-dihydro-[1,2,4]triazolo[1,5-a]pyrazin-7(8H)-yl)benzonitrile]",< 1000 nM
12,"Clc1cccc(N2CCn3nc(-c4ccccn4)nc3C2)c1 [Compound 113, 7-(3-Chlorophenyl)-2-(pyridin-2-yl)-5,6,7,8-tetrahydro-[1,2,4]triazolo[1,5-a]pyrazine]",< 1000 nM
13,"Fc1cccc(N2CCn3nc(-c4ccccn4)nc3C2)c1 [Compound 114, 7-(3-Fluorophenyl)-2-(pyridin-2-yl)-5,6,7,8-tetrahydro-[1,2,4]triazolo[1,5-a]pyrazine]",< 1000 nM

# Same assay, conditions: Table 2; aequorin cell line expressing human mGluR5, reference agonist glutamate at EC80; obtained in duplicate; read-out: IC50
row,Compound,IC50
1,"Clc1cccc(N2CCc3oc(-c4ccccn4)nc3C2)c1 [Compound 115, 5-(3-chlorophenyl)-2-(pyridin-2-yl)-4,5,6,7-tetrahydrooxazolo[4,5-c]pyridine]",< 1000 nM
2,"Fc1cccc(N2CCc3oc(-c4ccccn4)nc3C2)c1 [Compound 116, 5-(3-fluorophenyl)-2-(pyridin-2-yl)-4,5,6,7-tetrahydrooxazolo[4,5-c]pyridine]",< 1000 nM
3,"N#Cc1cc(F)cc(N2CCc3oc(-c4ccncn4)nc3C2)c1 [Compound 118, 3-fluoro-5-(2-(pyrimidin-4-yl)-6,7-dihydrooxazolo[4,5-c]pyridin-5(4H)-yl)benzonitrile]",< 1000 nM
4,"Fc1cccc(N2CCc3oc(-c4ccncn4)nc3C2)c1 [Compound 119, 5-(3-fluorophenyl)-2-(pyrimidin-4-yl)-4,5,6,7-tetrahydrooxazolo[4,5-c]pyridine]",< 10000 nM
5,"Clc1cccc(N2CCc3oc(-c4ccncn4)nc3C2)c1 [Compound 120, 5-(3-chlorophenyl)-2-(pyrimidin-4-yl)-4,5,6,7-tetrahydrooxazolo[4,5-c]pyridine]",< 10000 nM
